{"source": "patent US20090285770A1", "about": "“Topical Compositions for Promoting Homeostasis of the Skin” (L'Oreal, priority 2005, published 2009)", "origin": "cited, not measured here", "key": {"P1 integrins": {"test_system": "P1 integrins", "details": "applied to skin ex vivo"}, "β1 integrins [1]": {"test_system": "β1 integrins", "details": "cells in culture"}, "β1 integrins [2]": {"test_system": "β1 integrins"}, "(6 integrins)": {"test_system": "(6 integrins)", "details": "fibroblasts and keratinocytes in culture"}, "[3]": {"test_system": "α2, α3, α6, αv and β1 integrins", "details": "keratinocytes in culture or reconstructed skins"}}, "note": "Like-named read-outs stand apart in the source and are kept apart here. Ends that are not written are not given here."}
{"substance": "GPQGPQ [COLLAXYL, collagen mimetic hexapeptide sold by Vincience]", "values": [{"measurement": "expression of P1 integrins", "setting": "P1 integrins", "result": "stimulates the expression of P1 integrins"}]}
{"substance": "KLDAPT [VINCI 02, fibronectin mimetic hexapeptide sold by Vincience]", "values": [{"measurement": "expression of β1 integrins", "setting": "β1 integrins [1]", "result": "stimulates the expression of β1 integrins"}]}
{"substance": "RDFTKATNIRLRFLR [VINCI 01, laminin mimetic oligopeptide sold by Vincience]", "values": [{"measurement": "expression of β1 integrins", "setting": "β1 integrins [2]", "result": "stimulates the expression of β1 integrins"}]}
{"substance": "SERILESINE", "values": [{"measurement": "expression of (6 integrins)", "setting": "(6 integrins)", "result": "increasing the expression of (6 integrins"}]}
{"substance": "copper gluconate", "values": [{"measurement": "expression of integrins, in particular the α2, α3, α6, αv and β1 integrins", "setting": "[3]", "result": "capable of increasing the expression of integrins"}]}
{"substance": "manganese gluconate", "values": [{"measurement": "expression of integrins, in particular the α2, α3, α6, αv and β1 integrins", "setting": "[3]", "result": "capable of increasing the expression of integrins"}]}
{"substance": "zinc gluconate", "values": [{"measurement": "expression of integrins, in particular the α2, α3, α6, αv and β1 integrins", "setting": "[3]", "result": "capable of increasing the expression of integrins"}]}
